Test results reported in PubChem BioAssay (NCI).
Where “and” joins values, the source holds several entries; their conditions need not be identical. Equal entries are not always repeated.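 Assay format: 96-well plates, 48-hour exposure. Here, GI50 denotes the concentration required for 50% inhibition of growth. TGI is the concentration that stops growth completely.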

Key:
Experiment in all cases: growth of human tumour cells (NCI), 48 h
DMS 114 small cell lung = tested on: DMS 114 small cell lung
UACC-257 melanoma = tested on: UACC-257 melanoma
HOP-92 NSCLC = tested on: HOP-92 NSCLC
HOP-18 NSCLC = tested on: HOP-18 NSCLC
SR leukemia = tested on: SR leukemia
HOP-62 NSCLC = tested on: HOP-62 NSCLC
LOX IMVI melanoma = tested on: LOX IMVI melanoma
A549 NSCLC = tested on: A549 NSCLC
XF 498 CNS = tested on: XF 498 CNS
MDA-MB-435 = tested on: MDA-MB-435

Structure (SMILES)	TGI (DMS 114 small cell lung)	TGI (UACC-257 melanoma)	TGI (HOP-92 NSCLC)	TGI (HOP-18 NSCLC)	TGI (SR leukemia)	TGI (HOP-62 NSCLC)	TGI (LOX IMVI melanoma)	TGI (A549 NSCLC)	TGI (XF 498 CNS) [µM]	TGI (MDA-MB-435)	GI50 (DMS 114 small cell lung) [µM]	GI50 (HOP-92 NSCLC) [µM]	GI50 (HOP-18 NSCLC) [µM]	GI50 (SR leukemia) [µM]	GI50 (HOP-62 NSCLC) [µM]	GI50 (LOX IMVI melanoma) [µM]	GI50 (A549 NSCLC) [µM]	GI50 (MDA-MB-435)	GI50 (UACC-257 melanoma) [µM]
C#CCNC(=O)NCCCCC(NC(=O)OCc1ccccc1)C(=O)OCc1ccccc1 (configuration not stated)	> 73.5 µM	> 100 µM	> 100 µM	> 100 µM	> 100 µM	> 43 µM	> 82.2 µM	> 100 µM	40.8	–	–	–	–	–	–	–	–	–	–
O=c1nc(-c2ccccc2)cc(CC(O)c2ccc(Cl)c(Cl)c2)[nH]1 (configuration not stated)	> 100 µM	> 100 µM	> 100 µM	> 100 µM	–	> 100 µM	> 100 µM	> 100 µM	–	–	–	–	–	–	–	–	–	–	–
COC(=O)C1=C(CS(=O)c2ccc([N+](=O)[O-])cc2[N+](=O)[O-])C2C=CC1C2 (configuration not stated)	49.5 µM	92.2 µM	–	> 100 µM	–	> 100 µM	30.8 µM	> 100 µM	64.1	–	–	–	–	–	–	–	–	–	–
CCc1cccc(C)c1N1C(=O)C(=O)C(c2nc3ccccc3o2)C(=O)C1=O	–	> 100 µM	> 100 µM	> 100 µM	> 100 µM	> 100 µM	–	> 100 µM	> 100	–	–	–	–	–	–	–	–	–	–
N/C(=N\NS(=O)(=O)c1ccccc1)Oc1ccc(Br)cc1Br	> 100 µM	> 100 µM	> 100 µM	> 100 µM	> 100 µM	> 100 µM	> 100 µM	> 100 µM	> 100	–	–	–	–	–	–	–	–	–	–
CC1(c2cc3c(cc2Br)OCO3)SCCCS1	> 100 µM	–	51.7 µM	–	–	> 100 µM	> 100 µM	> 100 µM	82.3	–	–	–	–	–	–	–	–	–	–
CCOc1ccc(/C(C=O)=C(\Cl)c2ccc(OC)cc2)cc1	> 100 µM	> 100 µM	> 100 µM	> 100 µM	> 100 µM	> 100 µM	> 100 µM	> 100 µM	> 100	> 100 µM	–	–	–	–	–	–	–	–	–
COC(=O)CCC12CCC(=O)C1[C@@H](C(=O)OC)C[C@H]2C(=O)OC (some centres not stated)	> 100 µM	> 100 µM	–	> 100 µM	–	> 100 µM	> 100 µM	> 100 µM	> 100	–	–	–	–	–	–	–	–	–	–
Cc1ccc(Oc2ccccc2N)cc1	> 100 µM	> 100 µM	> 100 µM	> 100 µM	> 100 µM	> 100 µM	> 100 µM	> 100 µM	> 100	–	–	–	–	–	–	–	–	–	–
C[Si](C)(C)C(CCCCSc1ccccc1)(Sc1ccccc1)Sc1ccccc1	> 100 µM	> 100 µM	> 100 µM	–	> 100 µM	–	> 100 µM	> 100 µM	> 100	–	–	–	–	–	–	–	–	–	–
CCc1cccc(C)c1NC(=O)CCc1nnc2s/c(=C\c3cccc4ccccc34)c(=O)n12	> 100 µM	> 100 µM	> 100 µM	–	–	> 100 µM	> 100 µM	> 100 µM	> 100	–	–	–	–	–	–	–	–	–	–
Cc1c(C(=O)/C=C/C=C/c2ccccc2)[n+](=O)c2ccccc2n1[O-]	> 100 µM	84.6 µM	89.1 µM	> 100 µM	–	54.5 µM	> 100 µM	82.3 µM	95.3	–	–	–	–	–	–	–	–	–	–
CC(C)(O)/C=C/C(=O)[C@](C)(O)[C@H]1[C@H](O)C[C@@]2(C)[C@@H]3CC=C4[C@@H](C[C@H](O)C(=O)C4(C)C)[C@]3(C)C(=O)C[C@]12C	0.948 µM and 9.41 µM	0.598 µM and 2.81 µM	0.439 µM and 0.407 µM	0.41 µM and 0.394 µM	5.05 µM	0.699 µM and 0.547 µM	0.198 µM and 0.193 µM	16.5 µM	–	–	0.108	0.255	0.0838	0.39	0.337	0.0441	0.224	–	–
Clc1cccc(N2CCN(CCCN3CCc4c([nH]c5ccccc45)C3c3cccnc3)CC2)c1 (configuration not stated)	–	12.1 µM	31.3 µM	36 µM	7.34 µM and 24.6 µM	32.7 µM	37.9 µM	36.9 µM	–	–	–	12.8	–	4.58	–	–	16.1	–	–
COC(=O)C1C(=O)CC2CCCCC21 (configuration not stated)	> 100 µM	> 100 µM	–	–	> 100 µM	> 100 µM	–	> 100 µM	–	–	–	–	–	–	–	–	–	–	–
CN(C)c1nc(=NCc2ccco2)ss1	–	> 79.4 µM	–	> 100 µM	15.3 µM	62.8 µM	38.4 µM	> 76.7 µM	> 100	42.3 µM	–	–	–	–	–	–	–	–	–
O=C(O)c1cc(=O)c2c([nH]c3ccccc32)s1	> 100 µM	> 100 µM	> 100 µM	–	–	> 100 µM	–	> 100 µM	> 100	–	–	–	–	–	–	–	–	–	–
CC1=C2C(=CC(C)(C)[C@@H]2O)C(=O)[C@](C)(O)C12CC2	0.101 µM	0.328 µM and 0.259 µM	0.0887 µM and 0.0712 µM	0.0865 µM	0.0744 µM and 0.268 µM	0.1 µM and 0.0872 µM	0.0529 µM and 0.0384 µM	0.191 µM and 1.12 µM	0.0326	0.0706 µM and 0.0319 µM	–	0.0268	–	0.00351	0.0233	0.0125	–	0.025 µM and 0.0147 µM	–
CCOC(=O)CN(Cn1cncn1)Cn1cncn1	–	33 µM	> 100 µM	> 100 µM	–	> 100 µM	43.4 µM	> 100 µM	40.9	–	–	–	–	–	–	–	–	–	–
CNc1ccc2ncccc2c1[N+](=O)[O-]	> 100 µM	> 100 µM	> 100 µM	> 100 µM	> 100 µM	> 100 µM	> 100 µM	> 100 µM	> 100	–	–	–	–	–	–	–	–	–	–
N#C/C(=C\c1cccc(O)c1O)C(N)=O	> 100 µM	> 100 µM	> 100 µM	–	–	> 100 µM	–	> 100 µM	95.6	–	–	–	–	–	–	–	–	–	–
COc1ccc(Nc2nc3ccccc3c3occc23)cc1	–	> 50 µM	21.8 µM	–	> 50 µM	23.7 µM	5.32 µM	> 50 µM	–	5.59 µM	–	7.62	–	0.663	10	0.649	32.9	1.63 µM	19.8
CCOC(=O)c1c(C)n(Cc2ccc(Cl)cc2Cl)c2c1cc1oc(=O)c(=O)n3cnc2c13	–	21.7 µM	27.2 µM	–	5.85 µM	33.1 µM	27.3 µM	21.9 µM	–	30.9 µM	–	13.9	–	1.09	15.5	14.2	9.71	16.3 µM	9.51
